Earlier results on one substance are cited in US10980860B2, “Diagnosis, prevention and treatment of diseases of the joint” (Ascendis Pharma A/S, priority 2012, dated 2021).

The subject of the series is osteoarthritis. To be noted: injection into the joint; Chevalier et al, J. Rheumatol 32 (2005); cited from earlier work.

With “IL-1ra: IL-1ra (Anakinra, Kineret®, Swedish Orphan Biovitrum AB)”, the “Reduction of symptoms of osteoarthritis” value is reported as “not significantly reducing the symptoms of osteoarthritis”.
